The text below walks through data of PMC7022715 (Pharmaceutics, 2019).

The term NOAEL denotes the highest tested level that showed no adverse finding.

A short description of series [1]: In vivo pharmacokinetics after topical application to dorsal skin. Particulars: male, Sprague-Dawley, rat, plasma, both hydrogel groups, rats, topical 25 mg/kg. On the procedure:
In vivo pharmacokinetic study of MTK-loaded nanocrystal preparation was carried out in the healthy rats, after approval from Institutional Animal Care and Use Committee (IACUC) of Dankook University (Cheonan, Korea) (DKU-19-032, 8th October 2019). Six-week-old male Sprague-Dawley rats (SD rats, 250 ± 20 g) obtained from Samtako (Kyungki-do, Korea) were acclimated for at least 3 days, with free access to tap water and standardized chow. The rats were then divided into two groups (n = 6 per each group) and the hair on the dorsal region was removed by hair clippers without damaging the skin, prior to topical application. […] During the experimental period (24 h), individual rats were monitored for their changes in skin and fur, behavior pattern, morbidity, and mortality. […] The drug concentration in the plasma was determined by the high-performance liquid chromatography and tandem mass spectrometry (LC–MS/MS) method described below.
Briefly, 20 μL of thawed rat plasma was mixed with 500 μL of the extraction solution (25% (v/v) of dichloromethane and 75% (v/v) of ethyl acetate), including zafirlukast (the internal standard, IS, 60 ng/mL) and vortexed for 60 s. […] Then, the residue was reconstituted with 100 μL of methanol and the final solution was analyzed through the LC-MS/MS system, composed of Nexera X2 UHPLC and LCMS-8050 mass spectrometer (Shimadzu, Tokyo, Japan). […]

Series [2] is classed as in vivo. Particulars: rats, 25 mg/kg topical, 24 h monitoring. On the procedure:
In vivo pharmacokinetic study of MTK-loaded nanocrystal preparation was carried out in the healthy rats, after approval from Institutional Animal Care and Use Committee (IACUC) of Dankook University (Cheonan, Korea) (DKU-19-032, 8th October 2019). Six-week-old male Sprague-Dawley rats (SD rats, 250 ± 20 g) obtained from Samtako (Kyungki-do, Korea) were acclimated for at least 3 days, with free access to tap water and standardized chow. The rats were then divided into two groups (n = 6 per each group) and the hair on the dorsal region was removed by hair clippers without damaging the skin, prior to topical application. […] To avoid the drying of the nanocrystal or conventional hydrogels, a thin film made from polyurethane and acrylamide (Tegaderm®, 10 × 12 cm) was attached onto the application site. At predetermined time intervals (0, 0.5, 1, 2, 3, 4, 5, 8, 12, and 24 h), the blood samples (about 0.2 mL) were withdrawn from the submandibular vein using 28 G heparinized syringe. At 6 h post-administration, rats were allowed to freely access to water and standardized chow. During the experimental period (24 h), individual rats were monitored for their changes in skin and fur, behavior pattern, morbidity, and mortality. […] The drug concentration in the plasma was determined by the high-performance liquid chromatography and tandem mass spectrometry (LC–MS/MS) method described below.

On the set-up of series [3]: method as in ref 11 (Al Omari et al. 2007). The following applies: UV exposure for 15 min; ref 11 (Al Omari et al. 2007); cited from earlier work.
For series [4] the following is noted: oral, rats and mice, 12 months; cited from earlier work.
Details of series [5]: method as in ref 25 (Lai et al.). The following applies: photo-stability; ref 25 (Lai et al.); cited from earlier work.

As for `CC(C)(O)c1ccccc1CC[C@@H](SCC1(CC(=O)O)CC1)c1cccc(/C=C/c2ccc3ccc(Cl)cc3n2)c1` [MTK, Montelukast], the concentration at 5 h in series [1] (5 h post-dosing) was 2 to 6 ng/mL. The concentration at 12 h in series [1] (12 h post-dosing, read-out: drug concentration in the plasma) was less than 1 ng/mL. Also, in series [2], the “adverse effects following single topical administration” value is given as “no marked adverse effects”. Besides, the “drug content in the methanolic solution” value in series [3] is given as 70%. Moreover, the NOAEL in series [4] is reported as 50 mg/kg.

`CC1=C(/C=C/C(C)=C/C=C/C(C)=C/C(=O)O)C(C)(C)CCC1` [tretinoin]: the “half-life with nanosuspension as compared to drug methanolic solution” value in series [5] is given as 7.5 fold.
